Results: article PMC11758220, “Identification of a Privileged Scaffold for Inhibition of Sterol Transport Proteins through the Synthesis and Ring Distortion of Diverse, Pseudo-Natural Products” (ACS Central Science, 2025)

Biological target: T1, Aster-A (Homo sapiens, UniProt Q96CP6)
T1 construct: Aster-A(359-547); GST (PreScission-cleavable) (N, cleaved yes); made in house; host or cells: E. coli OverExpress C41
T1 sequence (Q96CP6 359-547): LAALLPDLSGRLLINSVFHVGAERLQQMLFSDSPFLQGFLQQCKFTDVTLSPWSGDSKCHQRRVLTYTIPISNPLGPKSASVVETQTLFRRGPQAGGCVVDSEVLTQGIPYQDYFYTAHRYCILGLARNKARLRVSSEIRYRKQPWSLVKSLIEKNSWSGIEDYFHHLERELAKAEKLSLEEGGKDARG
Assay: Differential scanning fluorimetry (DSF), Aster-A
Assay type: binding
Conditions: maximal thermal shift
Excerpt: Protein expression constructs
Human ASTER domains of Aster-A(359-547), -B(364-552) and -C(318-504) were subcloned into a pGEX-6p-2rbs vector, thus introducing the cloning artifact ‘GPLGS’.3 The pGEX-6P-1-GST-OSBP(377- […]
a gift from James H. Hurley (University of California).4 The pHIS_2His6_Thrombin_STARD4(2-205;C75S) plasmid was a gift from Young Jun Im (Chonnam National University).5 STARD5A was a gift from Nicola Burgess-Brown (Addgene plasmid #42392; http://n2t.net/addgene:42392; […]
Protein expression and purification […]
vectors including an N-terminal PreScission-cleavable glutathione S-transferase (GST)-tag were expressed in Escherichia coli (E. coli) OverExpress C41 in Terrific Broth (TB) medium for 16 h at 18 °C after the induction with 0.1 mM isopropyl β-D-1-thiogalactopyranoside (IPTG). Cells were harvested at 3500 × g for 15 minutes and lysed by sonication in buffer containing 50 mM HEPES pH 7.5, 300 mM NaCl, 10 %v/v glycerol, 5 mM dithiothreitol (DTT), 0.1 %v/v Triton X-100 and protease inhibitor mix HP plus (Serva). The lysate was purified by affinity chromatography on a GSTrap FF column (Cytiva) using an ÄKTA Start (Cytiva) in buffer containing 50 mM HEPES pH 7.5, 300 mM NaCl, 10 %v/v glycerol, 5 mM DTT and 0.01 %v/v Triton X-100. The GST-tag was cleaved overnight on the column at 4 °C. […]

Structure (SMILES) | Aster-A (DSF) ΔTmmax
CC12CCC3CC1CCC21C(=Nc2ccc(N4CCOCC4)cc21)O3 (single isomer, unassigned; (-)) [(−)-19a] | 7.5 °C
CC(C)(C)OC(=O)N1CCN(c2ccc3c(c2)C24CCC5CC(CCC52C)OC4=N3)CC1 (centres unmarked) [Compound 19e] | 11.8 °C
